Series [1] can be described thus: Investigation of maximum tolerated dose (body weight of mice). The format is in vivo, mouse. The note with it: 14 days. Here is the method: (§1) Toxicity Body weight change is an indicator of systemic toxicity. Accordingly, the body weights of mice intraperitoneally treated with different doses (0.04 and 0.4 µg/mouse) of either 1 or 3 were measured (Fig. S1). […] A blood hematological examination (including nineteen parameters) was also conducted on these mice on Day 14 (Fig. S2). There were no significant changes in almost any of the parameters in the mice treated with either 1 or 3 at doses of 0.04 or 0.4 µg/mouse.

Series [2] relates to SW620 cells. The series is described as follows: WST-8 cytotoxicity assay, SW620. The following applies: read-out: IC50 SW620; human colon cancer cell, 72 h, mean ± SE (n = 3). As to the method:
(§2) With a range of chromophore analogues in hand, their toxicity to SW620 cells was investigated by WST assays.
(§3) Basically, the evaluation was performed using methods previously reported by our group[20],[23]. Cytotoxic activities of compounds against MIA PaCa-2 (American Type Culture Collection), SW620 (European Collection of Authenticated Cell Cultures) were measured by WST-8 assay according to manufacturer’s protocol. Briefly, cells (1 × 10^4 cells/well) in a 96-well plate were cultured in medium (for MIA PaCa-2, D-MEM (Wako, Japan) containing 10% fetal bovine serum (Funakoshi, Japan), 100 units/mL penicillin G and 100 µg/mL streptomycin (Wako, Japan), for SW620, RPMI-1640 (Wako, Japan) containing 10% fetal bovine serum, 100 units/mL penicillin G and 100 µg/mL streptomycin) were cultured at 37 °C for 24 h under 5% CO2 atmosphere. Then, cells were treated with test compounds (final DMSO concentration was 1%) at 37 °C for 72 h under 5% CO2 atmosphere. Then, cells were treated with a solution of Cell Counting Kit-8® (Dojindo, Japan) for 3 h. After that, cell viabilities were determined based on the measurement of absorption at 450 nm of the wells by using TECAN Infinite® M200 microplate reader. The results were expressed as a percentage of the negative control (cells treated with DMSO only), and that value was fixed at 100%.

Series [3] can be described thus: Hepatic microsomal stability assay, mouse. It is filed as in vitro ADME. The note with it: 0.2 mg/mL microsomes, 37 °C, 30 min; for CLint scaled: microsomes, 1 μM; for CLint scaled at 1 μM: mouse liver microsomes, pH 7.4, 1 μM. As to the method: (§4) Before investigating the in vivo efficacy of 3, its metabolic stability was evaluated by treatment with human or mouse liver microsomes at 37 °C for 30 min, and the remaining analogues were analyzed by LC–MS/MS (Table 3). […] This means that approximately 67% of 3 was unaffected by human liver microsomes.
(§5) Basically, the analysis was performed using methods previously reported. Disappearance of the parent compound over time was measured by using the amount of drug at time zero as a reference. After 5 min of preincubation, 1 mM NADPH (final concentration, the same applies to the following, NADPH( +)) or 0.1 M phosphate buffer (pH 7.4, NADPH(−))) was added to a mixture containing 1 μM of the test compound, 0.2 mg/mL of human or mouse liver microsomes (Sekisui XenoTech LLC (Kansas City, KS)), 1 mM EDTA and 0.1 M phosphate buffer (pH 7.4) and incubated at 37 °C for 30 min by rotation at 60 rpm. An aliquot of 50 μL of the incubation mixture was sampled and added to 250 μL of chilled acetonitrile/internal standard (IS). After centrifuging for 15 min at 3150×g (4 °C), the supernatants were analyzed by LC–MS/MS. Hepatic microsomal stability (mL/min/kg, CLint) was calculated according to the previous report, using 48.8 and 45.4 mg MS protein/g liver and 25.7 and 87.5 g liver/kg body weight as scaling factors for human and mouse, respectively.
(§6) Basically, the analysis was performed using methods previously reported. An LC-MS8060 instrument equipped with a Shimadzu Nexera series LC system (Shimadzu, Kyoto, Japan) was used. All compounds were analyzed in multi-reaction monitoring mode under electron spray ionization conditions. The analytical column used was a […] C18 MGIII (3 μm × 2.0 mmID × 35 mm; OSAKA SODA, Osaka, Japan) at 50 °C. The gradient mobile phase consisted of 0.1% formic acid in water (mobile phase A,) and 0.1% formic acid in acetonitrile (mobile phase B) at a total flow rate of 1 mL/min. The initial mobile phase composition was 10% B, which was held constant for 0.2 min, increased in a linear fashion to 90% B over 1 min, then held constant for 0.8 min, and finally brought back to the initial condition of 10% B over 0.01 min and re-equilibrated for 1 min. The transitions (precursor ion > product ion) of echinomycin, 3 and IS (methyl testosterone) are 1101.45 > 1053.5 (positive), 1083.5 > 523.95 (negative), and 303.1 > 109.1 (positive), respectively.

For series [4], the system named is MIA PaCa-2 cells. The following applies: read-out: IC50 MIA PaCa-2; human pancreatic carcinoma cell, 72 h, mean ± SE (n = 3). As to the method:
as §2, §3

Series [5] in a line: Serum biochemistry / blood examination of treated mice. It is filed as in vivo. The following applies: 0.4 µg/mouse i.p., Day 14. Here is the method: as §1
Male BALB/c mice (7 weeks old) were purchased from Charles River Laboratories Japan, Inc. Each compound was intraperitoneally injected daily for 14 days. […] Serum was collected by centrifuging blood at 5000 rpm for 10 min. Biochemistry was performed in Oriental Yeast Co., Ltd, Japan.

The nature of series [6]: Hepatic microsomal stability assay, human. The note with it: 30 min; for CLint scaled: microsomes, 1 μM; for CLint scaled / CLint scaled at 1 μM: 0.2 mg/mL microsomes, 37 °C; for CLint scaled at 1 μM: human liver microsomes, pH 7.4, 1 μM. It is filed as in vitro ADME. Here is the method: as §4, §5, §6
Background: Liver microsomes are vesicles of endoplasmic reticulum, rich in cytochrome P450 enzymes.

[7] abbreviates: NADPH(+), read-out: Metabolic stability (CLint) Mouse NADPH(+).
Setting [8] is: NADPH(−), read-out: Metabolic stability (CLint) Mouse NADPH(−).
The mark [9] stands for this setting: NADPH(+), read-out: Metabolic stability (CLint) Human NADPH(+).
Where [10] appears, read: NADPH(−), read-out: Metabolic stability (CLint) Human NADPH(−).

Consider `CC(C)[C@H]1C(=O)OC[C@@H](NC(=O)c2nc3ccccc3cc2O)C(=O)N[C@@H](C)C(=O)N(C)[C@H]2CSC[C@@H](C(=O)N1C)N(C)C(=O)[C@H](C)NC(=O)[C@H](NC(=O)c1nc3ccccc3cc1O)COC(=O)[C@H](C(C)C)N(C)C2=O` [Compound 3], for which the body weight entry in series [1] (i.p. 0.04 and 0.4 µg/mouse, daily) is recorded as “did not differ greatly from those of the control”. In addition, the “dose up to which no significant toxicity is shown” value in series [1] (i.p. daily, body weight and blood examination) is given as at least 0.04 µg/mouse. The compound further registered a maximum tolerated dose in series [1] (i.p. daily, expected) of 0.04 µg/mouse. Moreover, the IC50 in series [2] is 0.85 ± 0.13 nM; in series [4], 1.4 ± 0.1 nM. Besides, the CLint scaled in series [3] (setting [7]) was 386 mL/min/kg; in series [3] (setting [8]), 118 mL/min/kg; in series [6] (setting [9]), 83.7 mL/min/kg; in series [6] (setting [10]), 45.1 mL/min/kg. For the same compound, the “alanine aminotransferase (ALT)” value in series [5] is listed as “increase”. For the same compound, the “aspartate aminotransferase (AST)” value in series [5] is on record as “increase”. Also, the “lactate dehydrogenase (LDH)” value in series [5] is “increase”. The “total bilirubin (T-BIL)” value in series [5] was “decrease”. Also, in series [6] (liver microsomes, pH 7.4, 37 °C, in the presence of NADPH, read-out: fraction unaffected by human liver microsomes), the remaining at 0.5 h, 1 μM is around 67%.
Regarding `Cc1ncc2n1-c1ccc(Cl)cc1C(c1ccccc1F)=NC2` [Midazolam], the CLint scaled at 1 μM in series [3] (setting [7]) is 4010 mL/min/kg; in series [3] (setting [8]), below 69.8 mL/min/kg; in series [6] (setting [9]), 435 mL/min/kg; in series [6] (setting [10]), below 22 mL/min/kg.

A word on the IC50: it is the concentration that gives 50% inhibition.

(Values after publication PMC10985088, “Synthesis and biological evaluation of echinomycin analogues as potential colon cancer agent” (Scientific Reports, 2024).)
